Source: paper PMC12389534, “Unlocking Therapeutic Potential of Novel Thieno-Oxazepine Hybrids as Multi-Target Inhibitors of AChE/BChE and Evaluation Against Alzheimer’s Disease: In Vivo, In Vitro, Histopathological, and Docking Studies” (Pharmaceuticals, 2025)

What was measured:
[1] = tested on: AlCl3-induced AD rat model; assay: Morris water maze (MWM) test in AlCl3-induced AD rats; type: in vivo; conditions: mean ± SE, n = 6
Method: (§1) All procedures were conducted conforming to the applicable National Institutes of Health standards and regulations for the Care and Use of Laboratory Animals. In this experiment, adult male Dawley rats in excellent condition weighing between 300 and 320 g were used. The animals were acquired from the Nile Company for Pharmaceuticals and Chemical Industries (Cairo, Egypt). They were placed in a controlled laboratory setting with unrestricted access to water, a temperature range of 24 to 26 °C, and 12 h a light–dark cycle. Three rats per cage were housed in polycarbonate cages that were individually packed with paper and encased with stainless steel wire.
Spatial learning and memory were inspected using the MWM test. Tap water was poured into a 150 cm diameter by 60 cm high circular water tank until it reached a depth of 30 cm (25 ± 2 °C). To make the water […], non-toxic white dye was applied. The east, west, north, and south quadrants of the pool were essentially separated into four equal sections. At a specific spot in the middle of one quadrant, an escape platform with a diameter of 10 cm was submerged 2 cm below the water’s surface. The platform stood in the exact same quadrant throughout the testing. The rats’ swimming route was recorded by a video camera situated above the pool. From a designated spot in each quadrant, each rat was submerged in the water with its back turned to the pool wall, and it was then left to swim to the platform. The rats received training sessions every day for three days in a row, with four trials conducted in each session. Before the next trial began, the animals were kept a maximum of 60 s to explore the hidden platform. After that, they were permitted to relax on it for 20 s. The rat was positioned gently on the platform and allowed 20 s to rest if it took longer than 60 s to locate it. The time taken to find the platform, or the escape latency, was documented. In order to do a probing test on the fourth day, the platform was detached away, and the rats were given 60 s to swim liberally. The time spent in the assigned quadrant was counted.

[2] = tested on: AlCl3-induced AD rat model; assay: Y-maze SAP test in AlCl3-induced AD rats; type: in vivo; conditions: mean ± SE, n = 6
Method: as §1
One kind of short-term memory that SAP can represent is spatial working memory. Three arms, designated A, B, or C, were employed in a black hardwood Y-maze with a symmetrical triangular core space. Rats were briefly positioned at the edge of one arm and given 8 min to freely navigate around the maze. When the rat’s rear paws were fully inside the arm, the entries were counted. The following formula was used to determine SAP based on the total number of arm entries and alternations: SAP (%) = [number of alternations/(total arm entries − 2)] × 100 [94].

## COc1cc2c(cc1OC)C(=O)C(CC1CCN(Cc3ccccc3)CC1)C2 (stereo not drawn) [Donepezil, reference compound]
[1]; escape latency
  Learning (s): 14.78 ± 0.83 ^ab s
[1]; time spent in target quadrant
  Memory (s): 42.67 ± 0.61 ^ab s
[2]
  SAP%: 85 ± 0.58 ^ab %
